Results on two compounds are retold here after publication PMC9146934 (Membranes, 2022).

What all share (format): cell-based
Test [1] concerns the target T1, Vd-RDL1 GABAr (Varroa destructor, UniProt A0A343W7T5).
T1 sequence (A0A343W7T5 35-585): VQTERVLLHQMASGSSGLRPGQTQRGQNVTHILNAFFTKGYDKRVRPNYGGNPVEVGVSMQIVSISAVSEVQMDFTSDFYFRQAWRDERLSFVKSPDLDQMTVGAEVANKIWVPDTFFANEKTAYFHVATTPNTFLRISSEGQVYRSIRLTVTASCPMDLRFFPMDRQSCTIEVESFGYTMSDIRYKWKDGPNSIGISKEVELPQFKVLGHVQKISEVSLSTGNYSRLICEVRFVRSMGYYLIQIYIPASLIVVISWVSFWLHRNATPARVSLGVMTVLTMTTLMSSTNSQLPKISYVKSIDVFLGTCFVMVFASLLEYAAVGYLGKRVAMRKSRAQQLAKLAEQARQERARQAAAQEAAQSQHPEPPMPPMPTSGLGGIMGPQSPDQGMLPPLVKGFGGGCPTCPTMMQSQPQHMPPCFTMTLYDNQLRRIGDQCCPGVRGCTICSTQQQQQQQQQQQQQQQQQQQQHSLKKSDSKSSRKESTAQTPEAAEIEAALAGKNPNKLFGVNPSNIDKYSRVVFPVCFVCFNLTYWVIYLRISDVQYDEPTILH
The experiment in a line: Two-electrode voltage-clamp of GABA-induced currents, Vd-RDL1 expressed in Xenopus laevis oocytes. As to the method: (§1) cRNAs were in vitro synthesized from linearized plasmids using the M-message M-machine transcription kit (Thermo Fisher, Waltham, MA USA) following the manufacturer’s instructions. The cRNA concentration was adjusted to 1 µg/µL. Preparation and injection of X. laevis oocytes were completed as previously described. The oocytes were injected with 30 nL of a solution containing the cRNA of interest. Injected oocytes were maintained at 19 °C in a survival solution containing (in mM): NaCl, 96; KCl, 2; CaCl2, 1.8; MgCl2, 1; Hepes, 5; Na-pyruvate, 2.5; and gentamycin, 0.025, pH = 7.2 with NaOH, renewed daily.
(§2) Expressed currents were recorded at room temperature using the two-electrode voltage-clamp method 1–3 days after injection. Electrodes were pulled from borosilicate glass (Warner, ref GC150T10) and filled with 3 M KCl. […] Drugs were applied using a gravity-driven perfusion system at a speed of 2 mL/min.
(§3) Oocytes were perfused with the following ND solution (in mM): NaCl, 96; KCl, 3; CaCl2, 0.5; MgCl2, 1; HEPES, 5, with pH set at 7.4 with NaOH at ~1 mL/min. The reversal potential of the Ap-RDL receptor was measured in solutions containing (in mM): NaCl, Na-acetate or TEACl (tetraethylammonium chloride), 100; HEPES, 5 with pH set at 7.4, with NaOH or TEAOH. […] Fipronil or picrotoxin were dissolved at the final concentrations from stock solutions in DMSO (dimethylsulfoxide) at 200 and 10 mM, respectively. The final DMSO concentration was always less than 0.2%.
(§4) With Rel.Cur. the current amplitude at each concentration relative to the current recorded in the absence of antagonist; IC50, the concentration for half-maximum inhibition, log ([Inhib]) the logarithm of the inhibitor concentration, and p a slope factor.
(§5) With t, the time of the recording; Rel.Cur., the current amplitude at each concentration relative to the current recorded in the absence of antagonist; Amp, the amplitude of the exponential, Tau Block, the time constant of the exponential, and R the residual non-inhibited current at the steady-state of the effects. The relative block (Rel.B) is estimated as 1-R expressed in %.
(In general: In two-electrode clamp one electrode senses voltage and the other passes current.)

The target in test [2] is T2, Am-RDL GABAr (Apis mellifera, UniProt A0A8U0Y4W2).
T2 sequence (A0A8U0Y4W2 19-476): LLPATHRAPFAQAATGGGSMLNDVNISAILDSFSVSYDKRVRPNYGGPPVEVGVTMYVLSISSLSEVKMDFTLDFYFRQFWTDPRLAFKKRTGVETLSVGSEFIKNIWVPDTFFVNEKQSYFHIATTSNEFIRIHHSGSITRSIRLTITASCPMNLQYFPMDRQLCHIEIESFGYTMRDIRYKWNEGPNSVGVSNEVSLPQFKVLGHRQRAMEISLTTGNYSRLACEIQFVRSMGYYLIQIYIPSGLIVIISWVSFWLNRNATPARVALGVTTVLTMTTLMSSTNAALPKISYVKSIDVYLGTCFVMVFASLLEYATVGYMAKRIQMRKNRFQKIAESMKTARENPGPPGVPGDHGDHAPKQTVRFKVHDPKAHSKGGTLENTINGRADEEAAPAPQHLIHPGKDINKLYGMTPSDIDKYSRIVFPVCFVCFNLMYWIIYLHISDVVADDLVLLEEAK
Nature of the test: Two-electrode voltage-clamp of GABA-induced currents, Am-RDL expressed in Xenopus laevis oocytes. As to the method:
as §1, §2, §3, §4, §5

Test [3] addresses T3, Hs-α2β2γ2 GABA-A receptor (Homo sapiens, UniProt P18507+P47869+P47870).
T3 construct: expressed in transfected cells; host or cells: Xenopus laevis oocytes (cRNA injection)
Nature of the test: cell-based. As to the method: as §1, §2, §3, §4, §5

Test [4] addresses T4, Vd-RDL2 GABAr (Varroa destructor, UniProt A0A3G3MDS2).
T4 sequence (A0A3G3MDS2 20-661): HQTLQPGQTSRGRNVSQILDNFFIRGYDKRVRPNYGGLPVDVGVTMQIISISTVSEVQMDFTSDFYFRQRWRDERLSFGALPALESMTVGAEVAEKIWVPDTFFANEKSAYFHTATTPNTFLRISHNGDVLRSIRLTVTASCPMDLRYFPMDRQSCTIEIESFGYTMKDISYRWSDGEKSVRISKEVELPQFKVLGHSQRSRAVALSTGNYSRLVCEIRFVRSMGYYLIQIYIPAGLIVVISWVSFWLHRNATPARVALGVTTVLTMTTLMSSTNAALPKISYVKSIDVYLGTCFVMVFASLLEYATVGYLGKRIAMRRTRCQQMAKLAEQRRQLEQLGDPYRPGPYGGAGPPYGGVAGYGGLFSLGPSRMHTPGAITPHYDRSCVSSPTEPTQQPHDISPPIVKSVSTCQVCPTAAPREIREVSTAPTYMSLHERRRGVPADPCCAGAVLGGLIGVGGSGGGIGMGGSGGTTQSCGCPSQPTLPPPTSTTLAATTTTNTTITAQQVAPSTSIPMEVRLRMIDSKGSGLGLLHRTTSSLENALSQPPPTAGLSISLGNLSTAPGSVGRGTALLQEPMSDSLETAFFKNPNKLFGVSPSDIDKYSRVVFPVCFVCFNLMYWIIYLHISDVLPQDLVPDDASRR
The experiment in a line: Two-electrode voltage-clamp of GABA-induced currents, Vd-RDL2 expressed in Xenopus laevis oocytes. On the procedure: as §1, §2, §3, §4, §5

For test [5], the target named is T5, Ap-RDL1 GABAr (Acyrthosiphon pisum, UniProt A0A385J708, C18R).
T5 sequence (A0A385J708 33-567 C18R): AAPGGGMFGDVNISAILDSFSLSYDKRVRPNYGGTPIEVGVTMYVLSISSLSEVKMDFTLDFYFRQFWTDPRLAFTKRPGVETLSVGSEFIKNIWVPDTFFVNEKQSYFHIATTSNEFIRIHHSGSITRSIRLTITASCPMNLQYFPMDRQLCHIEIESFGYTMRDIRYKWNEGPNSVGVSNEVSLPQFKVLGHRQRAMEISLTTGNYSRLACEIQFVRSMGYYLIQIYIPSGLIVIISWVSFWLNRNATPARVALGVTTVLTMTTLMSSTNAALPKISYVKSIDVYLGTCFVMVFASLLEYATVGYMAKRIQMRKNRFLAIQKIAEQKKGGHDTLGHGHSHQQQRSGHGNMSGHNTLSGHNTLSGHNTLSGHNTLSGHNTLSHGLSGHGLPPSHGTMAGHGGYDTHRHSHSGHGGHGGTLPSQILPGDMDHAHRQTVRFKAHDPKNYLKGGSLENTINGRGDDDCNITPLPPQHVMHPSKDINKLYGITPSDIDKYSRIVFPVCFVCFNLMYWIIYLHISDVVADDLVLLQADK
Nature of the test: Two-electrode voltage-clamp of GABA-induced currents, Ap-RDL1 expressed in Xenopus laevis oocytes. As to the method: as §1, §2, §3, §4, §5

The target in test [6] is T6, Vd-RDL3 GABAr (Varroa destructor, UniProt A0A343W7T7).
T6 sequence (A0A343W7T7 31-591): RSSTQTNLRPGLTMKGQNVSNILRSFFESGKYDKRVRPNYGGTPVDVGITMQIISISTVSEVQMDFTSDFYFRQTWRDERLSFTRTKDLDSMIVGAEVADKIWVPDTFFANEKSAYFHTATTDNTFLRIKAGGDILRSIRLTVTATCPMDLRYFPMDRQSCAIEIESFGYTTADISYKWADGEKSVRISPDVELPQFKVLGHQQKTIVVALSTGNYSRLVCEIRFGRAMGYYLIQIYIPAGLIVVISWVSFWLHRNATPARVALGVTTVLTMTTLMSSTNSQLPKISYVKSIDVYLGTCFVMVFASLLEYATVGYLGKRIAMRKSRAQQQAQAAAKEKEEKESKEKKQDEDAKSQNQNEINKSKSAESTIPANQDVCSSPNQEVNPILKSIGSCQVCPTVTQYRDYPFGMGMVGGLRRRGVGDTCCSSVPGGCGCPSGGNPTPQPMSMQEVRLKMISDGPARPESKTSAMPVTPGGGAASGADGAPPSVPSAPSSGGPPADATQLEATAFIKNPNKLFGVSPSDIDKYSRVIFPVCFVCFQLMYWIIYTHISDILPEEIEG
Nature of the test: Two-electrode voltage-clamp of GABA-induced currents, Vd-RDL3 expressed in Xenopus laevis oocytes. As to the method:
as §1, §2, §3, §4, §5

Test [7] deals with T7, Hs-α4β2γ2 GABA-A receptor (Homo sapiens, UniProt P18507+P47870+P48169).
T7 construct: expressed in transfected cells; host or cells: Xenopus laevis oocytes (cRNA injection; α4 in pcDNA3.1(+))
Nature of the test: Two-electrode voltage-clamp of GABA-induced currents, Hs-α4β2γ2 expressed in Xenopus laevis oocytes. As to the method:
as §1, §2, §3, §4
With t, the time of the recording; Rel.Cur., the current amplitude at each concentration relative to the current recorded in the absence of antagonist; Amp, the amplitude of the exponential, Tau Block, the time constant of the exponential, and R the residual non-inhibited current at the steady-state of the effects. […]

The mark [8] stands for this setting: peak current, oocytes clamped at −60 mV.
Where [9] appears, read: dieldrin 1 µM, GABA 100 µM, mono-exponential fit.

T7 sequence (P48169 36-554): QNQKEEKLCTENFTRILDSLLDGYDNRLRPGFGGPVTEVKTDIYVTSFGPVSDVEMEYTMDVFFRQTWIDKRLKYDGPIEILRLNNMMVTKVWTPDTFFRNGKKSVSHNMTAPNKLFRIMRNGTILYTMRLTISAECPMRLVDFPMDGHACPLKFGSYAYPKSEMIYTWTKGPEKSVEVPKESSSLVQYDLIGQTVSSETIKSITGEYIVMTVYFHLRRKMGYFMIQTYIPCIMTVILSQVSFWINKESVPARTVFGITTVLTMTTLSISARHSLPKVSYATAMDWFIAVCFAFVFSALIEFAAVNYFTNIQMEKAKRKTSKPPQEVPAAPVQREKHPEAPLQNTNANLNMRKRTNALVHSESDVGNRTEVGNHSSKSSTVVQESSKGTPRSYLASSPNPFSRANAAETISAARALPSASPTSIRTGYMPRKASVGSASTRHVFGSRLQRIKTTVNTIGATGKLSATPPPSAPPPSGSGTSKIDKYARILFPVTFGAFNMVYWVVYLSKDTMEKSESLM
T7 sequence (P47870 25-512 limits assumed): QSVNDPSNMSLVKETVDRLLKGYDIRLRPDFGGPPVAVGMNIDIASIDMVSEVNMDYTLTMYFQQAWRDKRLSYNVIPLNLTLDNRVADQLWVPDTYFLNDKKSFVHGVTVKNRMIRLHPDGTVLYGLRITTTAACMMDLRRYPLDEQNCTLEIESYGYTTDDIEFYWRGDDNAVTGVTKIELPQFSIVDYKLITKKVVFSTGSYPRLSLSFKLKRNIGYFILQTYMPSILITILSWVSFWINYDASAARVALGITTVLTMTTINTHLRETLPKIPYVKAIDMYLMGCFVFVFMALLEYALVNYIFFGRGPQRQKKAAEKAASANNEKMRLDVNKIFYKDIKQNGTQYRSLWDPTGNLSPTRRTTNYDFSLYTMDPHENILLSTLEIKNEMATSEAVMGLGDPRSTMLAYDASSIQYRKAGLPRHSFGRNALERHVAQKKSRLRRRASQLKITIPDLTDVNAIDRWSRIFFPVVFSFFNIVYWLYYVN
T7 sequence (P18507 40-475): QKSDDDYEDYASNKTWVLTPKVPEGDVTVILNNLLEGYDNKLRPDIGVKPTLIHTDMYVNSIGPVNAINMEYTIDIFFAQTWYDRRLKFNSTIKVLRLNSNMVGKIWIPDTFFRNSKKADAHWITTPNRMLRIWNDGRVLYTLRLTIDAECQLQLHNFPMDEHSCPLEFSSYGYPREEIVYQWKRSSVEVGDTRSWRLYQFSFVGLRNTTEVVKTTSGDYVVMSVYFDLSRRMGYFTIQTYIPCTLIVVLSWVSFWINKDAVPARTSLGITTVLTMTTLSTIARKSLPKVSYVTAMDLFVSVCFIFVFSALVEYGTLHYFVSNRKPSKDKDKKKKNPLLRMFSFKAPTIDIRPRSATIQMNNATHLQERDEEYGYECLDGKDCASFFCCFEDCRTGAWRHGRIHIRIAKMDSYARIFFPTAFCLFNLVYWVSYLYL
T3 sequence (P47869 29-451): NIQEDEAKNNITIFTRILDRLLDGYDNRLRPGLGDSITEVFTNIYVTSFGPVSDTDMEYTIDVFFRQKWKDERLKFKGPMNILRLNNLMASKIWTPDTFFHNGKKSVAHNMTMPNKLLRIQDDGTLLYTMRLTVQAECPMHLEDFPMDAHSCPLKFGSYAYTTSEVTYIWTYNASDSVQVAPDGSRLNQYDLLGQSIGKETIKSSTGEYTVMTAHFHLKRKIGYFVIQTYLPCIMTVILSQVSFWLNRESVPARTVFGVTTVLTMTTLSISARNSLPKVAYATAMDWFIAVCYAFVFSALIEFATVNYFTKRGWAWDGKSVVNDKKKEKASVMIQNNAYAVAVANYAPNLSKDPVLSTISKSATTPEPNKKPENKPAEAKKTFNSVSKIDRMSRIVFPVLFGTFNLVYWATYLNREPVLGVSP
T3 sequence (P47870 25-512 limits assumed): as the sequence (P47870 25-512 limits assumed) above
T3 sequence (P18507 40-475): as the sequence (P18507 40-475) above

In the case of `NCCCC(=O)O` [GABA, γ-aminobutyric acid], the “p (slope factor) of GABA dose–response curve” value in test [1] (logistic fit) is 2.3 ± 0.2; in test [2] (logistic fit) it was 2.1 ± 0.2; in test [3], 1.4 ± 0.1; in test [4] (logistic fit) it was 1.8 ± 0.2; in test [5] (logistic fit), 2.4 ± 0.3; in test [6] (logistic fit) it was 2.3 ± 0.1. Moreover, in test [7] (logistic fit), the “p (slope factor) of GABA dose–response curve” value came to 1.4 ± 0.2. For the same compound, the results for the EC50 in test [1] (setting [8]), in test [2] and in test [6] (setting [8]) were 269 ± 41 µM, 19.3 ± 3.5 µM and 43.1 ± 10.4 µM, respectively.
In the case of `ClC1=C(Cl)[C@]2(Cl)[C@@H]3[C@@H]4C[C@@H]([C@H]5O[C@@H]45)[C@@H]3[C@@]1(Cl)C2(Cl)Cl` [dieldrin], the “Rel.B (steady-state block)” value in test [1] (dieldrin 1 µM, GABA 300 µM) is about 20%. Also, the “Tau-Block (time constant of block)” value in test [1] (dieldrin 1 µM, GABA 300 µM, hard to evaluate, fitted) was “around 55 min”; in test [2] (setting [9]) it was 2 to 6 min; in test [3] (dieldrin 1 µM, GABA 300 µM, mono-exponential fit), 2 to 6 min; in test [4] (setting [9]), 2 to 6 min; in test [5] (dieldrin 1 µM, repetitive GABA application, mono-exponential fit), 2 to 6 min; in test [6] (setting [9]) it was 2 to 6 min. The “Tau-Block (time constant of block)” value in test [7] (setting [9]) was 2 to 6 min. For the same compound, the “Rel.B (steady-state relative block)” value in test [2] (dieldrin 1 µM, GABA 100 µM) was 80–91%; in test [3] (dieldrin 1 µM, GABA 300 µM) it was 80–91%; in test [4] (dieldrin 1 µM, GABA 100 µM) it was 51 ± 1%; in test [6] (dieldrin 1 µM, GABA 100 µM), 80–91%; in test [7] (dieldrin 1 µM, GABA 100 µM), 80–91%. Also, the “time to reach steady-state inhibition during successive pulses at the same dose” value in test [5] (Figure 6B, dieldrin 1 µM, GABA 50 µM) is “more than 10 min”.
